ChEMBL document CHEMBL1268920, “Design and synthesis of aminohydantoins as potent and selective human β-secretase (BACE1) inhibitors with enhanced brain permeability” (Bioorg Med Chem Lett, 2010)

Tested on: not listed separately
Assay: Ratio of AUC in brain to plasma in Tg2576 mouse
Format: ADME
Conditions: brain and plasma, read-out: Ratio AUC

Row | SMILES | Kp
1 | COc1ccc([C@]2(c3ccc(F)c(-c4cccnc4F)c3)N=C(N)N(C)C2=O)cc1C | 0.1
2 | CN1C(=O)C(c2ccccc2)(c2ccccc2)N=C1N | 0.8
3 | NC1=NC(c2ccccc2)(c2ccccc2)C2=NCCCN12 | 1
4 | CN1C(=O)[C@@](c2ccc(OC(F)(F)F)cc2)(c2ccc(F)c(-c3cncnc3)c2)N=C1N | 0.1

Tested on: Brain
Assay: Permeability across brain in Tg2576 mouse at 100 mg/kg, po
Format: ADME, organism-based
Parameters: dose 100 mg/kg, route oral
Conditions: in vivo

Row | permeability [%] | SMILES
5 | 15 | COc1ccc([C@]2(c3cccc(-c4cccnc4)c3)N=C(N)N(C)C2=O)cc1C
6 | 90 | CN1C(=O)[C@](c2ccccc2)(c2ccc(OC(F)F)cc2)N=C1N
7 | 10 | CN1C(=O)[C@@](c2ccc(OC(F)(F)F)cc2)(c2cccc(-c3cccnc3F)c2)N=C1N
8 | 10 | COc1ccc([C@]2(c3cccc(-c4cccnc4F)c3)N=C(N)N(C)C2=O)cc1C
9 | 9 | CN1C(=O)[C@@](c2ccc(OC(F)F)cc2)(c2cccc(-c3cccnc3F)c2)N=C1N
10 | 9 | CN1C(=O)[C@@](c2ccc(OC(F)F)cc2)(c2cccc(-c3cc(F)cnc3F)c2)N=C1N
11 | 7 | COc1ccc([C@]2(c3cccc(-c4cccnc4OC)c3)N=C(N)N(C)C2=O)cc1C
12 | 10 | CN1C(=O)[C@@](c2ccc(OC(F)(F)F)cc2)(c2cccc(-c3cccnc3)c2)N=C1N
13 | 5 | COc1ccc([C@]2(c3cccc(-c4cncnc4)c3)N=C(N)N(C)C2=O)cc1C

Row | SMILES | permeability [%]
14 | CN1C(=O)C(c2ccccc2)(c2ccccc2)N=C1N | 81
